Laboratory results from the supplement of paper PMC8253809.

Experiments:
SUDIPGXXI [1] = diffuse intrinsic pontine glioma line; assay: maximal growth inhibition (yFin) relative to DMSO / staurosporine; higher = more efficacious
How it was run: (§1)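 Patient-derived pHGG/DIPG cell lines and astrocyte controls were grown on 1% Geltrex-coated 384-well plates and exposed by pin tool to a 10-point threefold dilution series (mean top concentration 35 μM), in triplicate. Exposure was 7 days (iAstro 3 days) at 37 °C, 5% CO2. CellTiter-Glo luminescence was log2-transformed, normalised per plate to % activity between negative (solvent) and positive control wells, and pooled. EC50 and maximal response (yFin) come from the lowest-AICc three- or four-parameter log-logistic fit.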

SUDIPGXIII [2] = diffuse intrinsic pontine glioma line; assay: as above
How it was run: as §1

SUDIPGXVII [3] = diffuse intrinsic pontine glioma line; assay: as above
How it was run: as §1

HGGX39 [4] = paediatric high-grade glioma line; assay: as above
How it was run: as §1

SUDIPGXIX [5] = diffuse intrinsic pontine glioma line; assay: as above
How it was run: as §1

HGGX42 [6] = H3.3 G34R paediatric high-grade glioma line; assay: as above
How it was run: as §1

iAstro [7] = astrocyte control; assay: as above
How it was run: as §1

HABS [8] = astrocyte control; assay: as above
How it was run: as §1

DIPGX37 [9] = H3.3 K27M diffuse intrinsic pontine glioma line; assay: as above
How it was run: as §1

DIPGX9 [10] = diffuse intrinsic pontine glioma line; assay: as above
How it was run: as §1

SUDIPGIV [11] = diffuse intrinsic pontine glioma line; assay: as above
How it was run: as §1

SUDIPGXXI [12] = assay: EC50 (inflection of fitted growth-inhibition curve) (log10 M)
How it was run: as §1

SUDIPGXIII [13] = assay: as above
How it was run: as §1

SUDIPGXVII [14] = assay: as above
How it was run: as §1

HGGX39 [15] = assay: as above
How it was run: as §1

SUDIPGXIX [16] = assay: as above
How it was run: as §1

HGGX42 [17] = assay: as above
How it was run: as §1

iAstro [18] = assay: as above
How it was run: as §1

HABS [19] = assay: as above
How it was run: as §1

DIPGX37 [20] = assay: as above
How it was run: as §1

DIPGX9 [21] = assay: as above
How it was run: as §1

SUDIPGIV [22] = assay: as above
How it was run: as §1

HGGX2 [23] = paediatric high-grade glioma line; assay: area under dose-response curve of % growth inhibition (log2 RLU vs DMSO / staurosporine), 1e-11 to 1e-4 M (% x log10 M); higher = more growth inhibition
How it was run: (§2)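 On 1% Geltrex-coated 384-well plates, patient-derived pHGG/DIPG cell lines and astrocytes were treated in triplicate across 10 threefold dilutions (mean top concentration 35 μM) for 7 days, with iAstro treated for 3 days, at 37 °C, 5% CO2. Log2-transformed CellTiter-Glo luminescence was normalised per plate to % activity between solvent and positive controls. Area under the curve was obtained by the trapezoid rule from a log-logistic fit, or from a smoothing spline when that fit failed.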

SUDIPGXXI [24] = assay: as above
How it was run: as §2

SUDIPGXIII [25] = assay: as above
How it was run: as §2

SUDIPGXVII [26] = assay: as above
How it was run: as §2

HGGX39 [27] = assay: as above
How it was run: as §2

HGGX6 [28] = H3.3 G34R paediatric high-grade glioma line; assay: as above
How it was run: as §2

SUDIPGXIX [29] = assay: as above
How it was run: as §2

HGGX42 [30] = assay: as above
How it was run: as §2

SUDIPGVI = diffuse intrinsic pontine glioma line; assay: as above
How it was run: as §2

iAstro [31] = assay: as above
How it was run: as §2

HABS [32] = assay: as above
How it was run: as §2

DIPGX7 = H3.3 K27M diffuse intrinsic pontine glioma line; assay: as above
How it was run: as §2

DIPGX29 [33] = H3.3 K27M diffuse intrinsic pontine glioma line; assay: as above
How it was run: as §2

DIPGX37 [34] = assay: as above
How it was run: as §2

DIPGX9 [35] = assay: as above
How it was run: as §2

SUDIPGIV [36] = assay: as above
How it was run: as §2

HGGX2 [37] = assay: maximal growth inhibition (yFin) relative to DMSO / staurosporine; higher = more efficacious
How it was run: as §1

HGGX6 [38] = assay: as above
How it was run: as §1

DIPGX29 [39] = assay: as above
How it was run: as §1

HGGX2 [40] = assay: EC50 (inflection of fitted growth-inhibition curve) (log10 M)
How it was run: as §1

HGGX6 [41] = assay: as above
How it was run: as §1

DIPGX29 [42] = assay: as above
How it was run: as §1

CC[C@@]1(O)C(=O)OCc2c1cc1n(c2=O)Cc2cc3c(CN(C)C)c(O)ccc3nc2-1 [TOPOTECAN]
maximal growth inhibition (SUDIPGXXI [1]): 79% | maximal growth inhibition (SUDIPGXIII [2]): 26% | maximal growth inhibition (SUDIPGXVII [3]): 39% | maximal growth inhibition (HGGX39 [4]): 85.3% | maximal growth inhibition (SUDIPGXIX [5]): 98.6% | maximal growth inhibition (HGGX42 [6]): 37.5% | maximal growth inhibition (iAstro [7]): 34.6% | maximal growth inhibition (HABS [8]): 64.3% | maximal growth inhibition (DIPGX37 [9]): 103% | maximal growth inhibition (DIPGX9 [10]): 96.3% | maximal growth inhibition (SUDIPGIV [11]): 87.4% | EC50 (log10 M) (SUDIPGXXI [12]): -8.44 | EC50 (log10 M) (SUDIPGXIII [13]): -5.85 | EC50 (log10 M) (SUDIPGXVII [14]): -6.09 | EC50 (log10 M) (HGGX39 [15]): -5.44 | EC50 (log10 M) (SUDIPGXIX [16]): -5.74 | EC50 (log10 M) (HGGX42 [17]): -7.08 | EC50 (log10 M) (iAstro [18]): -7.87 | EC50 (log10 M) (HABS [19]): -6.83 | EC50 (log10 M) (DIPGX37 [20]): -4.78 | EC50 (log10 M) (DIPGX9 [21]): -6.06 | EC50 (log10 M) (SUDIPGIV [22]): -7.62 | area under dose-response curve (HGGX2 [23]): 121 | area under dose-response curve (SUDIPGXXI [24]): 351 | area under dose-response curve (SUDIPGXIII [25]): 60 | area under dose-response curve (SUDIPGXVII [26]): 84.5 | area under dose-response curve (HGGX39 [27]): 138 | area under dose-response curve (HGGX6 [28]): 75.7 | area under dose-response curve (SUDIPGXIX [29]): 267 | area under dose-response curve (HGGX42 [30]): 119 | area under dose-response curve (SUDIPGVI): 71.8 | area under dose-response curve (iAstro [31]): 134 | area under dose-response curve (HABS [32]): 204 | area under dose-response curve (DIPGX7): 118 | area under dose-response curve (DIPGX29 [33]): 71 | area under dose-response curve (DIPGX37 [34]): 150 | area under dose-response curve (DIPGX9 [35]): 287 | area under dose-response curve (SUDIPGIV [36]): 317

NC(=O)Nc1sc(-c2ccc(F)cc2)cc1C(N)=O [TPCA-1]
maximal growth inhibition (HGGX2 [37]): 36.3% | maximal growth inhibition (SUDIPGXXI [1]): 122% | maximal growth inhibition (SUDIPGXVII [3]): 20.7% | maximal growth inhibition (HGGX39 [4]): 27.7% | maximal growth inhibition (HGGX6 [38]): 22.5% | maximal growth inhibition (SUDIPGXIX [5]): 58.5% | maximal growth inhibition (HGGX42 [6]): 24.8% | maximal growth inhibition (iAstro [7]): 24.4% | maximal growth inhibition (HABS [8]): 33.8% | maximal growth inhibition (DIPGX29 [39]): 35.9% | maximal growth inhibition (DIPGX37 [9]): 38.5% | maximal growth inhibition (DIPGX9 [10]): 36.9% | maximal growth inhibition (SUDIPGIV [11]): 21.9% | EC50 (log10 M) (HGGX2 [40]): -4.67 | EC50 (log10 M) (SUDIPGXXI [12]): -4.81 | EC50 (log10 M) (SUDIPGXVII [14]): -4.74 | EC50 (log10 M) (HGGX39 [15]): -4.79 | EC50 (log10 M) (HGGX6 [41]): -5.19 | EC50 (log10 M) (SUDIPGXIX [16]): -4.66 | EC50 (log10 M) (HGGX42 [17]): -5.23 | EC50 (log10 M) (iAstro [18]): -4.76 | EC50 (log10 M) (HABS [19]): -4.95 | EC50 (log10 M) (DIPGX29 [42]): -4.75 | EC50 (log10 M) (DIPGX37 [20]): -4.8 | EC50 (log10 M) (DIPGX9 [21]): -4.8 | EC50 (log10 M) (SUDIPGIV [22]): -4.55 | area under dose-response curve (HGGX2 [23]): 23.3 | area under dose-response curve (SUDIPGXXI [24]): 99.3 | area under dose-response curve (SUDIPGXIII [25]): 3.37 | area under dose-response curve (SUDIPGXVII [26]): 15.2 | area under dose-response curve (HGGX39 [27]): 21.9 | area under dose-response curve (HGGX6 [28]): 26.9 | area under dose-response curve (SUDIPGXIX [29]): 39.2 | area under dose-response curve (HGGX42 [30]): 30.8 | area under dose-response curve (SUDIPGVI): 6.26 | area under dose-response curve (iAstro [31]): 18.2 | area under dose-response curve (HABS [32]): 32.4 | area under dose-response curve (DIPGX7): 11.3 | area under dose-response curve (DIPGX29 [33]): 26.8 | area under dose-response curve (DIPGX37 [34]): 30.6 | area under dose-response curve (DIPGX9 [35]): 29.4 | area under dose-response curve (SUDIPGIV [36]): 12

CC(=O)Nc1cccc(-n2c(=O)n(C3CC3)c(=O)c3c(Nc4ccc(I)cc4F)n(C)c(=O)c(C)c32)c1 [TRAMETINIB]
maximal growth inhibition (SUDIPGXXI [1]): 91.1% | maximal growth inhibition (SUDIPGXIII [2]): 42.5% | maximal growth inhibition (SUDIPGXVII [3]): 47.3% | maximal growth inhibition (HGGX39 [4]): 53.5% | maximal growth inhibition (SUDIPGXIX [5]): 106% | maximal growth inhibition (HGGX42 [6]): 46.1% | maximal growth inhibition (iAstro [7]): 32.2% | maximal growth inhibition (HABS [8]): 78.3% | maximal growth inhibition (DIPGX29 [39]): 54.2% | maximal growth inhibition (DIPGX37 [9]): 88.3% | maximal growth inhibition (DIPGX9 [10]): 99.2% | maximal growth inhibition (SUDIPGIV [11]): 26.3% | EC50 (log10 M) (SUDIPGXXI [12]): -7.93 | EC50 (log10 M) (SUDIPGXIII [13]): -7.34 | EC50 (log10 M) (SUDIPGXVII [14]): -6.86 | EC50 (log10 M) (HGGX39 [15]): -5.15 | EC50 (log10 M) (SUDIPGXIX [16]): -7.25 | EC50 (log10 M) (HGGX42 [17]): -4.9 | EC50 (log10 M) (iAstro [18]): -4.63 | EC50 (log10 M) (HABS [19]): -6.03 | EC50 (log10 M) (DIPGX29 [42]): -7.25 | EC50 (log10 M) (DIPGX37 [20]): -7.38 | EC50 (log10 M) (DIPGX9 [21]): -7.37 | EC50 (log10 M) (SUDIPGIV [22]): -6.66 | area under dose-response curve (HGGX2 [23]): 96.1 | area under dose-response curve (SUDIPGXXI [24]): 358 | area under dose-response curve (SUDIPGXIII [25]): 173 | area under dose-response curve (SUDIPGXVII [26]): 135 | area under dose-response curve (HGGX39 [27]): 74.7 | area under dose-response curve (HGGX6 [28]): 47.4 | area under dose-response curve (SUDIPGXIX [29]): 345 | area under dose-response curve (HGGX42 [30]): 51.4 | area under dose-response curve (SUDIPGVI): 62.1 | area under dose-response curve (iAstro [31]): 19 | area under dose-response curve (HABS [32]): 162 | area under dose-response curve (DIPGX7): 29.4 | area under dose-response curve (DIPGX29 [33]): 176 | area under dose-response curve (DIPGX37 [34]): 299 | area under dose-response curve (DIPGX9 [35]): 334 | area under dose-response curve (SUDIPGIV [36]): 66.9
